Measured values taken from ChEMBL document CHEMBL4400532, “Histone methyl transferases: A class of epigenetic opportunities to counter uncontrolled cell proliferation” (Eur J Med Chem, 2019).

Assays:
[1] = tested on: HCT-116; test: Cytotoxicity against human HCT116 cells after 72 hrs by CCK8 assay; assay type: functional, cell-based; settings: HCT-116, 72 h
[2] = tested on: CCD-18Co; test: Cytotoxicity against human CCD-18Co cells after 72 hrs by CCK8 assay; assay type: cell-based
[3] = tested on: PC-14; test: Cytotoxicity against human PC14 cells after 72 hrs by CCK8 assay; assay type: functional, cell-based; settings: PC-14, 72 h
[4] = tested on: A549; test: Cytotoxicity against human A549 cells after 72 hrs by CCK8 assay; assay type: functional, cell-based; settings: A549, 72 h
[5] = tested on: HFL1; test: Cytotoxicity against human HFL1 cells after 72 hrs by CCK8 assay; assay type: cell-based; settings: HFL1, 72 h
[6] = molecular target: T1, Histone-arginine methyltransferase CARM1 (Homo sapiens, UniProt Q86X55); test: Inhibition of CARM1 (unknown origin)
T1 sequence (Q86X55 whole entry): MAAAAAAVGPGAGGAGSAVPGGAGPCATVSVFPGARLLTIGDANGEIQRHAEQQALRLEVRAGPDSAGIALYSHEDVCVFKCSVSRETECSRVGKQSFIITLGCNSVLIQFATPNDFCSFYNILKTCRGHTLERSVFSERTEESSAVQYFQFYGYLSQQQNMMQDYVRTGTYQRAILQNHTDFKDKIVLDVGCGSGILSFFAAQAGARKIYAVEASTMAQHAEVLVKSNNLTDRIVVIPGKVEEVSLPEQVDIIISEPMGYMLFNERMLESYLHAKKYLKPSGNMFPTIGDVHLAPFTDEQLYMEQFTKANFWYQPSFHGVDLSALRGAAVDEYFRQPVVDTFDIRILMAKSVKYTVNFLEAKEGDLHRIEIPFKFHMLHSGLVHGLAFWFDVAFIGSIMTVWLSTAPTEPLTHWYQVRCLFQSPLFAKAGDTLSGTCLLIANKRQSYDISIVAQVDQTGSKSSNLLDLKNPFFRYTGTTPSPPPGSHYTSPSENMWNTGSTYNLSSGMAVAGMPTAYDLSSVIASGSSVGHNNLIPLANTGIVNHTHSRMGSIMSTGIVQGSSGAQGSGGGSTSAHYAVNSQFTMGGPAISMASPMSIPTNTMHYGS

[7] = molecular target: Histone-lysine N-methyltransferase, H3 lysine-79 specific (Homo sapiens, UniProt Q8TEK3); test: Inhibition of DOT1L in human THP1 cells assessed as reduction in H3K79 methylation measured after 7 days; assay type: cell-based
[8] = molecular target: Protein arginine N-methyltransferase 5 (Homo sapiens, UniProt O14744); test: Inhibition of PRMT5 (unknown origin)
[9] = molecular target: Histone-lysine N-methyltransferase EZH2 (Homo sapiens, UniProt Q15910); test: Inhibition of EZH2 (unknown origin)
[10] = molecular target: T2, Histone-lysine N-methyltransferase EHMT2 (Homo sapiens, UniProt Q96KQ7); test: Inhibition of EHMT2 (unknown origin)
T2 sequence (Q96KQ7 whole entry): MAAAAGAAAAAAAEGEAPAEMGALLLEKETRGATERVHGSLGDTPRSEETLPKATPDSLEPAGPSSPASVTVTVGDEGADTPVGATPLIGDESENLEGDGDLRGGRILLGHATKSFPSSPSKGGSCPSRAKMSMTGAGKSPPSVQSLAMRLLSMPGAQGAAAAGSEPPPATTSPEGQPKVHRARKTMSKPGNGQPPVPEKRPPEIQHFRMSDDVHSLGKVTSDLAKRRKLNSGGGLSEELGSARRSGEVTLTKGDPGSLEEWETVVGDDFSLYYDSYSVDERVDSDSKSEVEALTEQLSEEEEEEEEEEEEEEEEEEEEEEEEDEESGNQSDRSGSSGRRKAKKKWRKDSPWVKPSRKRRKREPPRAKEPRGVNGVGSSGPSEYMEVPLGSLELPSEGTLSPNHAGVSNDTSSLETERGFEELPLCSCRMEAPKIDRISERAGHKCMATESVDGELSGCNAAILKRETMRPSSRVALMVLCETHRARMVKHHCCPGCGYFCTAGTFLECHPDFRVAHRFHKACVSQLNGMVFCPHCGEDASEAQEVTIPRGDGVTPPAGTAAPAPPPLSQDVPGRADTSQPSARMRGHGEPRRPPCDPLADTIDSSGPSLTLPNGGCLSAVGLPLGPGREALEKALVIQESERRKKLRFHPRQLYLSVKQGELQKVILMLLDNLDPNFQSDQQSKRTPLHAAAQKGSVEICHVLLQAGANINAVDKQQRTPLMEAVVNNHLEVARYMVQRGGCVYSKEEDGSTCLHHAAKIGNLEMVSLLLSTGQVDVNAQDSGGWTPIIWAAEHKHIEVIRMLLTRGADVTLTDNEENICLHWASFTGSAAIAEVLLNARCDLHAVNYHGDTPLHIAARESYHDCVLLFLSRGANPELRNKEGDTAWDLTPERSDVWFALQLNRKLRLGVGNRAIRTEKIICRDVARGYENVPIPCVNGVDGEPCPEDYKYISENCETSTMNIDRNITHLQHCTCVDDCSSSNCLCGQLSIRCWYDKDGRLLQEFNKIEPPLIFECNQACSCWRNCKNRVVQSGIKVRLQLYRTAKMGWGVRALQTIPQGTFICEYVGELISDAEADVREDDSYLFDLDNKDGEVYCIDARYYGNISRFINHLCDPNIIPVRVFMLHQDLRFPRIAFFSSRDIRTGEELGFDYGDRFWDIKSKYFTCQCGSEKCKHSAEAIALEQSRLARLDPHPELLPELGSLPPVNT

Sequence of Histone-lysine N-methyltransferase EZH2 (Q15910 whole entry): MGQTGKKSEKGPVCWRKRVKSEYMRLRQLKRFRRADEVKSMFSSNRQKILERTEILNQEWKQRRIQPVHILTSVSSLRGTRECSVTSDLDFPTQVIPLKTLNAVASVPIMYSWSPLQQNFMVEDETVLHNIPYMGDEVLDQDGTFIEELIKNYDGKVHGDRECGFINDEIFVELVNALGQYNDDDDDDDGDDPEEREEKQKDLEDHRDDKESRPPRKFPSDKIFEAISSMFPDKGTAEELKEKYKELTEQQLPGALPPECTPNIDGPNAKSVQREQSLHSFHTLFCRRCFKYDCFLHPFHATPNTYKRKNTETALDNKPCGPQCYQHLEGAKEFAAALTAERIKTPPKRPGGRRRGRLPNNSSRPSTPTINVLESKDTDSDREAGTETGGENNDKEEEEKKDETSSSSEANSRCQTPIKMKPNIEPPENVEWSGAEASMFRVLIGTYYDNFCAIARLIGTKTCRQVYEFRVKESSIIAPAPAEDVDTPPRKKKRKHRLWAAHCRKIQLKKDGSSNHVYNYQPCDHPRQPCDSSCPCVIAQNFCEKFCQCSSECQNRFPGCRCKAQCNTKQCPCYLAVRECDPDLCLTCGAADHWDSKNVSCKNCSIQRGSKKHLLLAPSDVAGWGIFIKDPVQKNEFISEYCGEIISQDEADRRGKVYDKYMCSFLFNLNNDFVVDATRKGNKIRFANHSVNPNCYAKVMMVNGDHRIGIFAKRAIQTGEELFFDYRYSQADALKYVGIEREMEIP
Sequence of Protein arginine N-methyltransferase 5 (O14744 whole entry): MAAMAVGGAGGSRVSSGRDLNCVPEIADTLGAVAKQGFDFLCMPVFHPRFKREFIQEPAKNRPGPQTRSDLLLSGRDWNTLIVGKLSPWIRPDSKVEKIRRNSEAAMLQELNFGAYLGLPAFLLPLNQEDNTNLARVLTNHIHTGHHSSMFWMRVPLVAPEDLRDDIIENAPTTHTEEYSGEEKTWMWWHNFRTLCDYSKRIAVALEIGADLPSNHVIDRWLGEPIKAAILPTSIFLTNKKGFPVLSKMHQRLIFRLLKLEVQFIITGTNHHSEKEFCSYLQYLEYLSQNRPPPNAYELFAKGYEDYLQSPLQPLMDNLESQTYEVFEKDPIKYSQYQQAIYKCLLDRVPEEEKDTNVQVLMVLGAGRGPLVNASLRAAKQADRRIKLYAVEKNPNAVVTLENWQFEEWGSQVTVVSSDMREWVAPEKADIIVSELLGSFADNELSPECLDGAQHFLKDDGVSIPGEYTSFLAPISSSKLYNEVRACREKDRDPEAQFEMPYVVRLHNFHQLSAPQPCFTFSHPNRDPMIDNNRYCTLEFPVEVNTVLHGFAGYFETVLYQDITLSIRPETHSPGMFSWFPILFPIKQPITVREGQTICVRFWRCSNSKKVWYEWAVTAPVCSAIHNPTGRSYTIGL
Sequence of Histone-lysine N-methyltransferase, H3 lysine-79 specific (Q8TEK3 whole entry): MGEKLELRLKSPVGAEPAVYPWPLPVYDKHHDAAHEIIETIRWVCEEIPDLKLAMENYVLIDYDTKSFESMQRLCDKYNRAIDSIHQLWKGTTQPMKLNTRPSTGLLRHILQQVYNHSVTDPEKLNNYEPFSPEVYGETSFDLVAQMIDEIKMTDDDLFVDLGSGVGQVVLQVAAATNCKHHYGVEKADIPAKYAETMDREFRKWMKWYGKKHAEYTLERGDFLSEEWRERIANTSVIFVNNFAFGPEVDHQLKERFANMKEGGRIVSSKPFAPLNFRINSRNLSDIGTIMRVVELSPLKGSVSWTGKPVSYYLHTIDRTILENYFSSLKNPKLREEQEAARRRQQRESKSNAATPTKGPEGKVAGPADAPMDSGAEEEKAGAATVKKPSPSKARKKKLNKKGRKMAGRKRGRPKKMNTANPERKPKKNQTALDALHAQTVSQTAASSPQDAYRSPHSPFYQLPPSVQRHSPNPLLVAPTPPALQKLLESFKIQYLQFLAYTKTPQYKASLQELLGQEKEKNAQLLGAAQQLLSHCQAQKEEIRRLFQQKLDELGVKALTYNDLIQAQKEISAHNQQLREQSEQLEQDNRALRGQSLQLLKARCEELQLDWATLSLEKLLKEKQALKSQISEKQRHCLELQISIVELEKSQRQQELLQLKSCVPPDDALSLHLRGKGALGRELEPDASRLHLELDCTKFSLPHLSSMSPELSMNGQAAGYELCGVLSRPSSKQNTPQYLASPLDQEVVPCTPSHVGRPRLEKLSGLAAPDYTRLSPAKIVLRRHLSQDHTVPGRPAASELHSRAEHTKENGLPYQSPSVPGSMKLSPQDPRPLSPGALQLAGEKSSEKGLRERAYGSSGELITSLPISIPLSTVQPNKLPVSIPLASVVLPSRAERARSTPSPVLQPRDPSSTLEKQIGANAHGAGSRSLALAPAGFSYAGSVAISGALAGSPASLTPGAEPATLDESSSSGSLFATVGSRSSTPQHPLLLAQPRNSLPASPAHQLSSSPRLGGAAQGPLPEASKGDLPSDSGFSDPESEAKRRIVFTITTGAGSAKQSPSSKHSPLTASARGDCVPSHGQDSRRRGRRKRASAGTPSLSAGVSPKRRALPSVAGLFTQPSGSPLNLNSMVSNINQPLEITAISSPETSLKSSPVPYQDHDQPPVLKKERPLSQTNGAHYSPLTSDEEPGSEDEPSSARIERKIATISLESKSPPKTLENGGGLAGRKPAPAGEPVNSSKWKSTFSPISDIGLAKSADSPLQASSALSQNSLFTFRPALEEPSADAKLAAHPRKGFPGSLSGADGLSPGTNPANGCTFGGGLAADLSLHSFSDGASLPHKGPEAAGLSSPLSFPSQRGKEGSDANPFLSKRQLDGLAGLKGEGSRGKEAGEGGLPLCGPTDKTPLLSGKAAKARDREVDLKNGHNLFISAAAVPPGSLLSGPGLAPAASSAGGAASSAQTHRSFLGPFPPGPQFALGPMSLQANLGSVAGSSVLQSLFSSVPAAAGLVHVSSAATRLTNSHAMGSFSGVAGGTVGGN

| IC50 [6] | IC50 [7] | IC50 [8] | IC50 [9] | IC50 [10] | SMILES | IC50 [1] | IC50 [2] | IC50 [3] | IC50 [4] | IC50 [5] |
| --- | --- | --- | --- | --- | --- | --- | --- | --- | --- | --- |
|  |  |  |  |  | COc1cc(OC)c(-c2cn3cc(NCCN)c(OC)cc3n2)cc1Cl | < 10 µM | < 10 µM | < 10 µM | < 10 µM | < 10 µM |
| > 50 µM | < 0.1 µM | > 50 µM | > 50 µM | > 50 µM | CC(CNC(=O)Nc1ccc(C(C)(C)C)cc1)CN(C)C[C@H]1O[C@@H](n2cnc3c(N)ncnc32)[C@H](O)[C@@H]1O (stereo not given in full) |  |  |  |  |  |
